Test results published in publication PMC10648349, “Aromatic Diboronic Acids as Effective KPC/AmpC Inhibitors” (Molecules, 2023).
Values after ≈ are worked out from the molar mass of the structure shown.

Tests used:
[1] = test system: B. subtilis ATCC 6633; assay: direct antimicrobial activity (disc-diffusion); format: cell-based; conditions: Bacillus subtilis, ATCC6633; 0.4 mg per disc, 9 mm disc (linezolid 0.03 mg, 6 mm disc); - no zone; read-out: Diameter of inhibition zone
Experimental: (§1) Direct antimicrobial activity against Gram-negative and Gram-positive bacterial strains, as well as against yeast, was examined as previously described by the disc-diffusion test, the MIC determination assay, the MBC (for bacteria), and the MFC (for yeasts) determination tests. All the above-mentioned tests were performed according to EUCAST [71, 72] and CLSI [73, 74, 75, 76, 77] recommendations. The following reference agents were used: nitrofurantoin (for Gram-negative rods), linezolid (for Gram-positive bacteria), and fluconazole (in the case of fungi). The new aromatic diboronic acids were dissolved in DMSO (Sigma, St. Louis, MO, USA). In the disc-diffusion test, the concentration of new agents was 0.4 mg per disc.

[2] = test system: S. aureus ATCC 43300 MRSA; assay: direct antimicrobial activity (disc-diffusion, MIC, MBC); format: cell-based; conditions: Staphylococcus aureus; for zone of inhibition at 0.4 mg/disc: 0.4 mg per disc, 9 mm disc (linezolid 0.03 mg, 6 mm disc), - no zone, read-out: Diameter of inhibition zone
Experimental: as §1

[3] = test system: S. aureus ATCC 6538P; assay: as above; format: cell-based; conditions: Staphylococcus aureus, ATCC6538P; for zone of inhibition at 0.4 mg/disc: 0.4 mg per disc, 9 mm disc (linezolid 0.03 mg, 6 mm disc), - no zone, read-out: Diameter of inhibition zone
Experimental: as §1

[4] = test system: E. faecalis ATCC 29212; assay: as above; format: cell-based; conditions: Enterococcus faecalis, ATCC29212
Experimental: as §1

[5] = test system: E. faecium ATCC 6057; assay: as above; format: cell-based; conditions: Enterococcus faecium, ATCC6057
Experimental: as §1

[6] = test system: S. epidermidis ATCC 12228; assay: as above; format: cell-based; conditions: Staphylococcus epidermidis, ATCC12228; for zone of inhibition at 0.4 mg/disc: 0.4 mg per disc, 9 mm disc (linezolid 0.03 mg, 6 mm disc), - no zone, read-out: Diameter of inhibition zone
Experimental: as §1

[7] = test system: C. guilliermondii IBA 155; assay: antifungal activity (disc-diffusion, MIC, MFC); format: cell-based, Candida guilliermondii; conditions: Meyerozyma guilliermondii, IBA155; fluconazole by Etest
Experimental: as §1

[8] = MTT-based viability assay; format: cell-based; conditions: human, MRC-5 human fibroblasts, 72 h, read-out: Viability of MRC-5 cells (% of viable cells ± SD)
Experimental: MRC-5 human fibroblasts (ECACC) were cultured in MEME, Minimum Essential Medium Eagle (Merck) supplemented with 10% fetal bovine serum (Merck), 2 mM l-glutamine, antibiotics (100 U/mL penicillin, 100 μg/mL streptomycin, Merck) and 1% non-essential amino acids (Merck). Cells were grown in 75 cm^2 cell culture flasks (Sarstedt) in a humidified atmosphere of CO2/air (5/95%) at 37 °C. MTT-based viability assay was conducted as described previously. Optical densities were measured at 570 nm using a BioTek microplate reader. All measurements were carried out in three replicates, and the results were expressed as a percent of viable cells versus control cells.

[9] = test system: C. krusei ATCC 6258; assay: antifungal activity (disc-diffusion, MIC, MFC); format: cell-based, Candida krusei; conditions: Pichia kudriavzevii, ATCC6258; fluconazole by Etest
Experimental: as §1

[10] = test system: P. aeruginosa MUW 700 cAmpC-positive; assay: combination disc test CDT-AmpC; format: cell-based; conditions: Pseudomonas aeruginosa; agent 0.3 mg per disc; read-out: Diameter of inhibition zone, CAZ-30 disc with agent
[11] = test system: E. coli 77 CMY-2-positive; assay: combination disc test CDT-AmpC; format: cell-based; conditions: Escherichia coli; agent 0.3 mg per disc; read-out: Diameter of inhibition zone, CAZ-30 disc with agent
[12] = test system: K. pneumoniae ATCC 700603 ESBL-positive; assay: combination disc test CDT-ESBL; format: cell-based; conditions: Klebsiella pneumoniae, ATCC700603; agent 0.3 mg per disc; read-out: Diameter of inhibition zone, CAZ-30 disc with agent
[13] = test system: K. pneumoniae ATCC BAA 1705 KPC-2-positive; assay: combination disc test CDT-KPC; format: cell-based; conditions: Klebsiella pneumoniae, BAA1705; agent 0.3 mg per disc; read-out: Diameter of inhibition zone, MEM-10 disc with agent
[14] = test system: K. pneumoniae 81 KPC-3(+); assay: MIC of tested agent alone, microdilution; format: cell-based; conditions: Klebsiella pneumoniae; read-out: MIC of agent alone
Experimental: (§2) To examine the ability of tested agents to inhibit various carbapenemases and AmpC-enzymes, their synergy with antibiotics against β-lactamase-producing strains was assessed by checkerboard microdilution assay, with slight modification. Checkerboards were prepared in microtiter plates, with seven two-fold dilutions of β-lactams (1–64 mg/L) in the rows and three two-fold dilutions of tested agents and PBA (4–16 mg/L) in the columns. Tested agents’ concentrations were limited to the concentrations at which the newest commercially available BLIs (vaborbactam, relebactam, and avibactam) are used in susceptibility testing. Plates were inoculated and incubated as in the MIC microdilution assay. Parallel, MICs of tested agents and PBA alone were determined by the microdilution assay. Following the incubation, antibiotic MICs in the presence of each agent’s concentration were determined. Moreover, for the first well without growth found in each checkerboard row and column along the growth/non-growth interface, the fractional inhibitory concentration index (FICI) was calculated using the formula below:FICI = [(MIC of antibiotic in combination)/(MIC of antibiotic alone)] + [(MIC of the tested agent in combination)/(MIC of tested agent alone)].

[15] = test system: E. coli 77 CMY-2(+); assay: MIC of tested agent alone, microdilution; format: cell-based; conditions: Escherichia coli; read-out: MIC of agent alone
Experimental: as §2

[16] = test system: E. coli 76 KPC-2(+); assay: MIC of tested agent alone, microdilution; format: cell-based; conditions: Escherichia coli; read-out: MIC of agent alone
Experimental: as §2

[17] = test system: K. pneumoniae 83 KPC-3(+), CTX-M-3(+); assay: MIC of tested agent alone, microdilution; format: cell-based; conditions: Klebsiella pneumoniae; read-out: MIC of agent alone
Experimental: as §2

[18] = test system: P. aeruginosa MUW 700 AmpC(+); assay: MIC of tested agent alone, microdilution; format: cell-based; conditions: Pseudomonas aeruginosa; read-out: MIC of agent alone
Experimental: as §2

[19] = test system: K. pneumoniae ATCC BAA-1705 KPC-2(+); assay: MIC of tested agent alone, microdilution; format: cell-based; conditions: Klebsiella pneumoniae, ATCCBAA1705; read-out: MIC of agent alone
Experimental: as §2

[20] = test system: C. parapsilosis ATCC 22019; assay: antifungal activity (disc-diffusion, MIC, MFC); format: cell-based, Candida parapsilosis; conditions: Lodderomyces parapsilosis, ATCC22019; fluconazole by Etest
Experimental: as §1

[21] = test system: C. tropicalis ATCC 750; assay: antifungal activity (disc-diffusion, MIC, MFC); format: cell-based; conditions: Candida tropicalis, ATCC750; fluconazole by Etest
Experimental: as §1

[22] = test system: C. albicans ATCC 90028; assay: antifungal activity (disc-diffusion, MIC, MFC); format: cell-based; conditions: Candida albicans, ATCC90028; fluconazole by Etest
Experimental: as §1

[23] = test system: S. cerevisiae ATCC 9763; assay: antifungal activity (disc-diffusion, MIC, MFC); format: cell-based; conditions: Saccharomyces cerevisiae, ATCC9763; fluconazole by Etest
Experimental: as §1

[24] = test system: C. tropicalis IBA 171; assay: antifungal activity (disc-diffusion, MIC, MFC); format: cell-based; conditions: Candida tropicalis, IBA171; fluconazole by Etest
Experimental: as §1

[25] = test system: E. coli 77 CMY-2-positive; assay: checkerboard microdilution, antibiotic plus tested agent; format: cell-based, Escherichia coli
Experimental: as §2
(§3) For calculations, all off-scale MICs were converted to the next-highest doubling concentration. Subsequently, both the average and the lowest FICI were interpreted. The interpretation was as follows: FICI ≤ 0.5, synergy; 0.5 < FICI ≤ 4, indifference and FICI > 4, antagonism. Primarily, examined combinations consisted of meropenem (Pol-Aura, Morag, Poland) plus tested agents against carbapenemases-producing strains and ceftazidime (Pol-Aura, Morag, Poland) plus tested agents against AmpC-producing strains. For agents that reduced meropenem MIC at least 4-fold for at least two tested strains, similar assays were performed with imipenem (Pol-Aura, Morag, Poland) and ertapenem (Pol-Aura, Morag, Poland).

[26] = test system: AmpC producers; assay: microdilution with ceftazidime; format: cell-based
Experimental: as §2, §3

[27] = test system: P. aeruginosa MUW 700 cAmpC-positive; assay: checkerboard microdilution, antibiotic plus tested agent; format: cell-based, Pseudomonas aeruginosa
Experimental: as §2, §3

[28] = 0.4 mg per disc, 9 mm disc (linezolid 0.03 mg, 6 mm disc), - no zone, read-out: Diameter of inhibition zone

| SMILES | MIC [2] [µg/mL] | MIC [3] [µg/mL] | MIC [4] [µg/mL] | MIC [5] [µg/mL] | MIC [6] [µg/mL] | MIC [7] [µg/mL] | viability at 72 h, 12.5 mg/L [8] [%] | viability at 72 h, 25 mg/L [8] [%] | viability at 72 h, 50 mg/L [8] [%] | MIC [9] [µg/mL] | zone of inhibition at 300 µg/disc [10] [mm] | zone of inhibition at 300 µg/disc [11] [mm] | zone of inhibition at 300 µg/disc [12] [mm] | zone of inhibition at 300 µg/disc [13] [mm] | MIC [14] [µg/mL] | MIC [15] [µg/mL] | MIC [16] [µg/mL] | MIC [17] [µg/mL] | MIC [18] [µg/mL] | MIC [19] [µg/mL] | other results |
| --- | --- | --- | --- | --- | --- | --- | --- | --- | --- | --- | --- | --- | --- | --- | --- | --- | --- | --- | --- | --- | --- |
| OB(O)c1c(F)c(F)c(F)c(F)c1B(O)O [3d] | 400 (≈ 1680 µM) | 200 (≈ 841 µM) | 200 (≈ 841 µM) | 200 (≈ 841 µM) | 200 (≈ 841 µM) | 200 (≈ 841 µM) | 91.3 ± 7.4 | 100 ± 7.7 | 77.7 ± 15.5 | 50 (≈ 210 µM) | 14 | 21 | 15 | 6 | > 400 | > 400 | > 400 | > 400 | > 400 | > 400 | zone of inhibition at 0.4 mg/disc [1]: 12 mm; zone of inhibition at 0.4 mg/disc [2]: 18 mm; zone of inhibition at 0.4 mg/disc [3]: 20 mm; zone of inhibition at 0.4 mg/disc [4, 28]: 12 mm; zone of inhibition at 0.4 mg/disc [5, 28]: 16 mm; zone of inhibition at 0.4 mg/disc [6]: 21 mm; MIC [20]: > 400 µg/mL; MIC [21]: > 400 µg/mL; MIC [22]: 100 µg/mL (≈ 421 µM); MIC [23]: 200 µg/mL (≈ 841 µM); MIC [24]: > 400 µg/mL |
| OB(O)c1cc(B(O)O)c(B(O)O)s1 [5c, thiophene-2,3,5-triboronic acid] | > 400 | 400 (≈ 1860 µM) | 200 (≈ 928 µM) | > 400 | > 400 | > 400 | 102 ± 3.4 | 97.9 ± 1.4 | 85.6 ± 0.7 | > 400 | 21 | 22 | 16 | 6 | > 400 | > 400 | > 400 | > 400 | > 400 | > 400 | Average FICI with ceftazidime [25]: 0.43; The lowest FICI with ceftazidime [25]: 0.27; ceftazidime MIC reduction, up to ([26]; agent 4 mg/L): ≤ 2 fold; ceftazidime MIC reduction, up to ([26]; agent 8 mg/L): up to 4 fold; ceftazidime MIC reduction, up to ([26]; agent 16 mg/L): ≤ 8 fold; Average FICI with ceftazidime [27]: 0.43; Interpretation of the average FICI with ceftazidime [27]: S (FICI ≤ 0.5, synergy); Interpretation of the lowest FICI with ceftazidime [27]: S (FICI ≤ 0.5, synergy); The lowest FICI with ceftazidime [27]: 0.27; MIC [20]: > 400 µg/mL; MIC [21]: > 400 µg/mL; MIC [22]: 400 µg/mL (≈ 1860 µM); MIC [23]: > 400 µg/mL; MIC [24]: > 400 µg/mL |
| OB(O)c1ccc(Br)c(B(O)O)c1 [2f] | 200 (≈ 818 µM) | 50 (≈ 204 µM) | > 400 | 200 (≈ 818 µM) | 100 (≈ 409 µM) | > 400 | 103 ± 8.8 | 92.1 ± 0.9 | 76.2 ± 0.7 | 400 (≈ 1640 µM) | 21 | 19 | 15 | 6 | > 400 | > 400 | > 400 | > 400 | > 400 | > 400 | zone of inhibition at 0.4 mg/disc [1]: 22 mm; zone of inhibition at 0.4 mg/disc [2]: 13 mm; MBC [3]: 400 µg/mL (≈ 1640 µM); zone of inhibition at 0.4 mg/disc [3]: 14 mm; zone of inhibition at 0.4 mg/disc [6]: 25 mm; MIC [20]: > 400 µg/mL; MIC [21]: > 400 µg/mL; MIC [22]: > 400 µg/mL; MIC [23]: 200 µg/mL (≈ 818 µM); MIC [24]: > 400 µg/mL |
